This test concerns GL261 cells with microglia. The test is described as follows: concentration dependence on microglia-stimulated invasion of glioma cells (24-well transwell). Format: cell-based. The conditions noted are these: GL261 3×10^5, microglia 1.5×10^5, 48 h. On the procedure:
FIG. 11. […] GL261 cells (3×10^5) and microglia (1.5×10^5) were embedded in 50 μl of basement membrane extract in the presence of the indicated concentrations of semapimod (SMP) and CP1213, layered in a 24-well transwell and incubated for 48 h. The number of invading GL261 cells was determined. Data shown represent the average+/−SD of between 2 and 5 independent experiments, each performed in duplicate.
The concentration dependence of the inhibitory effect of semapimod or CP1213 was investigated on microglia-stimulated invasion of glioma cells. GL261 cells (3×10^5) and microglia (1.5×10^5) were embedded in 50 μl of basement membrane extract in the presence of the indicated concentrations of semapimod (SMP) and CP1213, layered in a 24-well transwell and incubated for 48 h. The number of invading GL261 cells was determined. Data are shown in FIG. 11 and represent the average+/−SD of between 2 and 5 independent experiments, each performed in duplicate. The data support a method of treating a glioma, by inhibiting microglia-stimulated invasion processes with guanylhydrazones.

With `C/C(=N\NC(=N)N)c1cc(NC(=O)CCCCCCCCC(=O)Nc2cc(/C(C)=N/NC(=N)N)cc(/C(C)=N/NC(=N)N)c2)cc(/C(C)=N/NC(=N)N)c1` [semapimod], the “effect on microglia-stimulated invasion of GL261 glioma cells (concentration dependence)” value is reported as “inhibitory effects”.

The values above are taken from patent US9440914B2, “Method for treating glioblastomas and other tumors” (THE FEINSTEIN INSTITUTE FOR MEDICAL RESEARCH, priority 2013, dated 2016).
